From US20240299380A1, “APPLICATION OF COMPOUND IN PREPARATION OF DRUG FOR TREATING MYELOFIBROSIS AND RELATED SYMPTOMS/SIGNS THEREOF, AND USE OF COMPOUND” (Betta Pharmaceuticals Co., Ltd, priority 2021, published 2024)

Assays:
[1] = test system: HEL cells with JAK2V617F activation mutation; test: CTG cell proliferation assay, HEL cells; format: cell-based, human
Protocol: (§1) The effects of compound 1 on proliferation of human myeloproliferative tumor cells HEL and SET-2 cells with JAK2V617F activation mutation were tested using CTG assay in this example to evaluate half inhibitory rate (IC50) of compound 1 on HEL and SET-2 cell proliferation.
(§2) • a) HEL cells were cultured in RPMI 1640 medium containing 1% PS and 10% FBS. […] The cells were incubated in a humidified incubator with 5% carbon dioxide (CO2) at 37° C.
(§3) • a) Cells were harvested upon reaching a certain density. • b) Cells were resuspended in corresponding medium with a certain density. • c) 30 μL of cell suspension was added into each well of a 384-well plate. For HEL, the density was 1800 cells/well, and for SET-2, 2000 cells/well. • d) Cells were incubated overnight in a humidified incubator with 5% CO2 at 37° C.
(§4) The compounds were diluted with DMSO 6.67 fold from 20 mM to 3 mM, then 3-fold serial dilutions were conducted to make 10 concentrations for each compound. […]
(§5) • a) 30 μL CTG reagent (CelltiterGlo kit) was added to each well, and the plate was subjected to orbital shaking for 2 minutes, then incubated at room temperature in the dark for 30 minutes. • b) Luminescence values were obtained using Envision.
(§6) IC50 (the half maximal inhibitory concentration) was calculated with GraphPad Prism 8 software and following nonlinear fitting formula: […]

[2] = test system: NF-κB transcriptional activity; test: NF-κB reporter gene assay in HEK293 cells; format: cell-based
Protocol: In present example, reporter gene assay was used to determine the inhibitory effect of compound 1 on NF-κB transcriptional activity in HEK293 cells, to evaluate the effect of the compound on NF-κB transcriptional activity.
• a) All compounds were 3-fold serial diluted from 10 mM for 10 doses in DMSO. • b) The positive compound CDDO-Me was 3-fold serial diluted from 10 mM for 10 doses in DMSO. • c) 1000×positive control ([…]) and 1000×negative control (100% DMSO) were prepared. • d) Compounds plate was sealed and shaked for 5 minutes.
• a) All cells were cultured following ATCC recommendations. […] Digestion was terminated with complete culture medium, and the cells were collected and counted. • d) A total of 6*10^6 HEK293T cells were seeded into a 100 mm cell culture dish. • e) The cells were then incubated overnight in a 5% CO2 incubator. […]
• a) The Britelite plus reagent were allowed to reach room temperature. • b) The 384-well assay plates (prepared at Step 3) were allowed to reach room temperature. • c) 25 μL Britelite plus reagent was added to each well of 384-well assay plate. • d) Luminescence values were recorded with Envision.
[formula] • RLU: relative luminescence units • RLUPositive: The average luminescence value of the blank controls. • RLUvehicle: The average luminescence value of the negative controls. • 5.2 IC50 calculating and compound dose-response curves fitting: […]

[3] = test system: SET-2 cells with JAK2V617F activation mutation; test: CTG cell proliferation assay, SET-2 cells; format: cell-based, human
Protocol: as §1, §2, §3, §4, §5, §6

[4] = test system: IL-6 secretion in THP-1 cells; test: IL-6 ELISA in THP-1 cell supernatants following LPS stimulation; format: cell-based, Human
Protocol: The Human IL-6 Valukine ELISA kit (purchased from R&D) was used to measure the IL-6 content in the cell supernatants by ELISA method in this example. The experimental procedures shown below were conducted to determine the effect of compound 1 on IL-6 secretion in THP-1 cell supernatants following LPS stimulation.
THP-1 cells were cultured in RPMI 1640 medium containing 1% PS and 10% FBS and 2-Mercaptoethanol (IX). The cells were incubated in a humidified incubator with 5% carbon dioxide (CO2) at 37° C. […]
• a) 50 μL medium was added to each well. • b) 100 μL CTG reagent (CelltiterGlo kit) was added to each well, and the plate was placed on a orbital shaker for 2 minutes, then placed at room temperature in dark conditions for 30 minutes, and then transferred to CTG plate. • c) The luminescence values were recorded with Envision.
IC50 (The half maximal inhibitory concentration) was calculated using GraphPad Prism 8 software with the following nonlinear fitting formula: […]
[formula] • b) IL-6 detection: X: Log value of Compound concentration, Y: IL-6 concentration (pg/mL) • IL-6 concentration was calculated based on the linear equation of standard dilution concentration and wavelength detection. […]

[5] = Homo sapiens, 72 h, CTG, read-out: IC50 for cell proliferation inhibition

IC50 ([2]; Homo sapiens, HEK293 cells with NF-κB reporter gene, 8 ng/ml TNFα, 16-20 h, read-out: IC50 for the inhibition of NF-κB transcriptional activity): 148 nM | IC50 ([4]; Homo sapiens, THP-1 cells, LPS 4 μg/mL, read-out: IC50 for inhibition of IL-6 secretion in THP-1 cells): 22.4 nM
Structure (SMILES): Cc1nc2ncc(-c3cn(C)c(=O)c4[nH]ccc34)nc2n1Cc1ccc(C(F)(F)F)cc1 [Compound 1, 6-methyl-4-(2-methyl-1-(4-(trifluoromethyl)benzyl)-1H-imidazo[4,5-b]pyrazin-6-yl)-1H-py rrolo[2,3-c]pyridin-7(6H)-one]
inhibitory effect on proliferation of HEL cells (in words) [1]: good inhibitory effect | IC50 [1, 5]: 154 nM | inhibition of the transcriptional activity of NF-κB (in words) ([2]; HEK293 cells stably transfected with the NF-κB reporter gene): significantly inhibited | inhibitory effect on proliferation of SET-2 cells (in words) [3]: good inhibitory effect | IC50 [3, 5]: 104 nM | inhibition of IL-6 secretion (in words) ([4]; THP1 monocytes, LPS): significantly inhibited
